Laboratory results reported in patent publication US11344493B2, “Cleavable surfactant” (FIRMENICH SA, priority 2017, dated 2022).
One block for each compound: values may come before it.

How the values were obtained:
[1] = Kinetics of hydrolysis of imines in deuterium oxide (1H NMR); type: physicochemical; details: for order of hydrolysis kinetics: t1/2 versus initial concentration
Method: (§1) The compounds according to formula (I) at different concentrations (c=10 . . . 500 mM) were individually dissolved in deuterium oxide (0.7 mL) at room temperature. The pD was measured and the hydrolysis of the imine was followed by ^1H NMR until an equilibrium was reached. The imine concentration at equilibrium was determined. Reactions with constant pD were either performed at unmodified pD (basic) or in a 4-(2-hydroxyethyl)-1-piperazineethanesulfonic acid (HEPES) buffer (slightly acidic). The data summarized in Table 3 were obtained from the measurements.

[2] = Hydrolysis of imines in model formulation with Texapon NSO IS; type: physicochemical; details: Texapon NSO IS 4 wt % in deuterium oxide, c0 10 mM
Method: To investigate the hydrolysis of the imines according to formula (I), a simple model formulation in deuterium oxide was prepared. Freeze-dried Texapon® NSO IS (trademark from BASF and commercially available from BASF) (4 wt %) was dissolved in deuterium oxide (95 wt %) at room temperature. The imine according to formula (I) (1 wt %) was added to the formulation at the beginning of the experiment (t=0), the pH was measured and the NMR measurements were started.

[3] = Hydrolysis of imines in model formulation with Hostapur SAS 60 and Genapol LA 70; type: physicochemical; details: Hostapur SAS 60 7 wt % and Genapol LA 70 17 wt % in deuterium oxide, c0 10 mM, pD 10.4
Method: A second aqueous surfactant solution was prepared by dissolving freeze-dried sodium C14-17 sec-alkyl sulphonate (Hostapur® SAS 60; trademark from Clariant GmbH and commercially available from Clariant GmbH; 7 wt %) and freeze-dried ethoxylated C12-16 alcohols (Genapol® LA 70; trademark from Clariant GmbH and commercially available from Clariant GmbH; 17 wt %) in deuterium oxide (75 wt %) at room temperature. Then, sodium deuteroxide 40% in deuterium oxide was added until reaching a pH of 10. The imine according to formula (I) (1 wt %) was added to the formulation at the beginning of the experiment (t=0), the pH was measured and the NMR measurements were started.

[4] = Solubilizing capacity of imines for a model perfume in water; type: physicochemical; details: for Fragrance/Surfactant Weight Ratio: transparent solution of model perfume in water; for Imine: minimal value of surfactant necessary to obtain a transparent solution: water 9.0 g and model perfume 0.3 g
Method: Water (9.0 g) and the model perfume composition of Table 8 (0.3 g) are mixed under gentle agitation. The resulting solution is turbid. Imines of formula (I) are then added until a transparent solution was obtained. The ratio fragrance to surfactant indicates the solubilizing capacity of the imines wherein higher ratio indicates higher solubilizing capacity of the imine.

[5] = Surface tension of aqueous solutions (Kruss DSA 10 MK2 Drop Shape Analysis); type: physicochemical; details: for surface tension / surface activity: aqueous solution 1% wt, FIG. 2; for critical concentration (CMC) and self-aggregation in micelles: surface tension as function of concentration, FIG. 3
Method: The surface activity of aqueous solutions of typical well known surfactants at concentration of 1% wt was measured by Kruss DSA 10 MK2 Drop Shape Analysis System. In parallel, the HLB value of the surfactant molecules was calculated by using ECL model. FIG. 2 represented the correlation between the surface tension and the calculated HLB values (black circles). The curve reached a saturation value at HLB 18, which was the limit of the HLB range for the compound of formula (I). All molecules having HLB higher than 18 are not part of the present invention due to a strong water solubility and an insufficient surface activity.
The surface tension of compounds of formula (I): Imine F, Imine D, Imine E, Imine B and of comparative Imine C1, was measured as well and the data were added to FIG. 2 (grey squares). […] The HLB calculated for this molecule was higher than 18 and therefore out of the limits fixed in the present invention.
As a comparative example, the compound Imine C7 reported in Polymer 2014, vol. 55, pages 1443-1451 was synthetized (see Example 3 g)) and surface tension of the aqueous solution of 1% wt of this molecule was measured. The data was included in FIG. 2 (black triangle).
The surface tension as function of the concentration of Imine compounds F and C1 was measured and presented on FIG. 3.

[6] = Hydrolysis of imines in deuterium oxide in the presence of co-surfactants; type: physicochemical; details: c0 10 mM
Method: The influence of the presence of (co-)surfactants on the hydrolysis of imines according to formula (I) was investigated by ^1H NMR spectroscopy in deuterium oxide (0.7 mL) as described in Example 5 with an initial imine concentration of 10 mM and 4 wt % of an additional surfactant. The following surfactants were tested: sodium dodecyl sulfate (SDS), sodium laureth sulphate (Texapon® NSO IS; trademark from BASF and commercially available from BASF), hexadecyl-trimethyl-ammonium bromide (cetrimonium bromide), 2,5,8,11,14,17,20,23,26,29,32,35,38,41,44,47,50,53,56,59,62,65,68,71,74-pentacosaoxahexaheptacontan-76-yl stearate (PEG25Monostearate), (polyethylene glycol)9,10 4-(1,1,3,3-tetramethylbutyl)-phenyl ether (Triton® X-100; trademark from Dow Chemical and commercially available from Sigma Aldrich), polyoxyethylene 20 sorbitan monooleate (Tween® 80; trademark from Uniquema, ICI Americas Inc. and commercially available from Sigma Aldrich).

[7] = type: physicochemical; details: pH 2.6
From the text: Compounds according to formula (I) were included into citral containing microemulsions formed by mixing a buffer solution at pH=2.6 (48% citric acid and 3.2% NaOH in water), Tween® 80 (trademark from Uniquema, ICI Americas Inc. and commercially available from Sigma Aldrich) and citral in the quantities listed in Table 10. […] The two solutions contained equimolar amounts of citral. At different time intervals the different formulations (0.305 g) were extracted by adding an aqueous solution of NaCl (15%, 2.745 g) and iso-octane (3.050 g). The mixtures were stirred (at 500 rpm for 10 min) and left equilibrating (5 min) to separate into two well distinguished phases. The phases were carefully separated and the organic phase (20 μL) analysed by GC/MS. GC/MS analyses were carried out on an Agilent 6890N Network GC system and an Agilent 5973 Network MS. […] Citral was analyzed by single ion monitoring and the extracted citral concentrations were determined by external standard calibration. […] The citral concentration measured in the extraction experiments as a function of time (FIG. 1), were fitted with Equation 2. The degradation rates, as well as the initial maximum citral concentrations were determined.

[8] = Equilibration of imines in deuterium oxide (1H NMR); type: physicochemical; details: conditions of Table 3
Method: as §1

Compound: CCCCCCC(C=NCCc1ccc(OCCOCCOCCOCCOCCOCCOCCOCCOCCOCCOCCOC)cc1)=Cc1ccccc1 [Imine A]
- half-time of hydrolysis (t1/2) ([1]; c0 10 mM, pD 10.1): 59.5 h
- initial rate of hydrolysis (v0) ([1]; c0 10 mM, pD 10.1): 1.3 10^−3 mM/min
- half-time of hydrolysis (t1/2) ([2]; pD 10.6): 9.2 h
- half-time of hydrolysis t1/2 (est.) [3]: 42.5 h

Compound: CCCCCCC(C=NC(C)COC(C)COC(C)COC(C)COC(C)COC(C)COC(C)COC(C)COC(C)COC(C)COCCOCCOCCOCCOCCOCCOCCOCCOCCOCCOCCOCCOCCOCCOCCOCCOCCOCCOCCOCCOCCOCCOCCOCCOCCOCCOCCOCCOCCOCCOCCOC)=Cc1ccccc1 (mixture of isomers) [Imine C]
- order of hydrolysis kinetics [1]: pseudo-zero order kinetics
- half-time of hydrolysis (t1/2) ([2]; pD 10.5): 17.5 h
- Fragrance/Surfactant Weight Ratio [4]: 4.0
- Imine: minimal value of surfactant necessary to obtain a transparent solution [4]: 11.43%

Compound: COCCOCCOCCOCCOCCOCCOCCOCCOCCOCCOCCOCCOCCOCCOCCOCCOCCOCCOCCOCC(C)OCC(C)OCC(C)N=CC=C(C)CCC=C(C)C (mixture of isomers) [Imine D]
- surface tension / surface activity [5]: strong surface activity
- concentration at equilibrium (ceq) ([6]; co-surfactant Certrimmonium bromide 4 wt %, pD 10.5): 4750 µM
- concentration at equilibrium (ceq) ([6]; co-surfactant PEG25Monostearate 4 wt %, pD 10.5): 2790 µM
- concentration at equilibrium (ceq) ([6]; co-surfactant SDS 4 wt %, pD 10.5): 8930 µM
- concentration at equilibrium (ceq) ([6]; co-surfactant Texapon NSO IS 4 wt %, pD 10.5): 5960 µM
- concentration at equilibrium (ceq) ([6]; co-surfactant none, pD 10.5): 2950 µM
- Fragrance/Surfactant Weight Ratio [4]: 5.2
- Imine: minimal value of surfactant necessary to obtain a transparent solution [4]: 14.36%

Compound: CCCCCCCC=CCCC=NC(C)COC(C)COC(C)COC(C)COC(C)COC(C)COC(C)COC(C)COC(C)COC(C)COCCOCCOCCOCCOCCOCCOCCOCCOCCOCCOCCOCCOCCOCCOCCOCCOCCOCCOCCOCCOCCOCCOCCOCCOCCOCCOCCOCCOCCOCCOCCOC (mixture of isomers) [Imine G]
- Fragrance/Surfactant Weight Ratio [4]: 5.3
- Imine: minimal value of surfactant necessary to obtain a transparent solution [4]: 14.68%

Compound: COCCOCCOCCOCCOCCOCCOCCOCCOCCOCCOCCOCCOCCOCCOCCOCCOCCOCCOCCOCCOCCOCCOCCOCCOCCOCCOCCOCCOCCOCCOCCOCC(C)OCC(C)OCC(C)OCC(C)OCC(C)OCC(C)OCC(C)OCC(C)OCC(C)OCC(C)N=CC=C(C)CCC=C(C)C (mixture of isomers) [Imine E]
- surface tension / surface activity [5]: strong surface activity
- concentration at equilibrium (ceq) ([6]; co-surfactant PEG25Monostearate 4 wt %, pD 10.4): 7500 µM
- concentration at equilibrium (ceq) ([6]; co-surfactant PEG25Monostearate 4 wt %, phosphate buffer (pD 4.4)): 6400 µM
- concentration at equilibrium (ceq) ([6]; co-surfactant none, pD 10.4): 2800 µM
- Fragrance/Surfactant Weight Ratio [4]: 9.3
- Imine: minimal value of surfactant necessary to obtain a transparent solution [4]: 23.14%
- decrease of the citral degradation rate [7]: 1.53 times

Compound: CCCCCCCC=CCCC=NC(C)COC(C)COC(C)COCCOCCOCCOCCOCCOCCOCCOCCOCCOCCOCCOCCOCCOCCOCCOCCOCCOCCOCCOC (mixture of isomers) [Imine F]
- surface tension / surface activity [5]: strong surface activity
- critical concentration (CMC) and self-aggregation in micelles [5]: existence of critical concentration (CMC)
- Fragrance/Surfactant Weight Ratio [4]: 2.7
- Imine: minimal value of surfactant necessary to obtain a transparent solution [4]: 7.92%

Second part, the compound after the results:

- half-time of hydrolysis ([1]; at all concentrations): around 5 h
- half-time of hydrolysis (t1/2) ([1]; c0 10 mM, pD 10.5): 4.56 h
- initial rate of hydrolysis (v0) ([1]; c0 10 mM, pD 10.5): 14.8 10^−3 mM/min
- half-time of hydrolysis (t1/2) ([1]; c0 25 mM, pD 10.5): 8.4 h
- initial rate of hydrolysis (v0) ([1]; c0 25 mM, pD 10.5): 23.7 10^−3 mM/min
- half-time of hydrolysis (t1/2) ([1]; c0 100 mM, pD 10.4): 5.28 h
- initial rate of hydrolysis (v0) ([1]; c0 100 mM, pD 10.4): 856 10^−3 mM/min
- order of hydrolysis kinetics [1]: pseudo-first order kinetics
- half-time of hydrolysis (t1/2) ([2]; pD 10.5): 4.3 h
- initial rate of hydrolysis (v0) ([2]; pD 10.5): 35.4 10^−3 mM/min
Compound: CCCCCCC(C=NCCOCCOCCOCCOCCOCCOCCOCCOCCOCCOCCOC)=Cc1ccccc1 [Imine C5]

- surface tension / surface activity [5]: high surface tension value
- critical concentration (CMC) and self-aggregation in micelles [5]: absence of CMC and self-aggregation
- stability of the imine at equilibrium [8]: mostly cleaved
Compound: COCCOCCOCCOCCOCCOCCOCCOCCOCCOCCOCCOCCOCCOCCOCCOCCOCCOCCOCCOCC(C)OCC(C)OCC(C)N=Cc1ccc(O)c(OC)c1 (mixture of isomers) [Imine C1, reference compound]
